The nature of series [1]: Toxicity and weight in mice treated for 2 weeks. The series is classed as in vivo, mouse. On the set-up: toxicity / clinical signs: dose or concentration left out as unconfirmed. Here is the method:
For studying the effect of a compound of Example 1 on weight, C3H/B6 mice were gavaged orally once a day with compounds of Example 1 and mice weight was recorded daily for 2 weeks.
Mice were treated with Example 1 and monitored closely to detect any clinical signs. […] This establishes that PPP1R15B inhibition is not toxic. This was surprising and unanticipated as prior to this study one would have speculated that PPP1R15B inhibitors would be so deleterious that they would have no therapeutic potential.

In series [2] the test system is HD-N171-82Q mice. Kind of series: Huntington's disease mouse model, motor performance (rotarod). The series is classed as in vivo. The following applies: 2 mg/kg orally daily for 4 weeks. Here is the method: To assess the efficacy of a compound of Example 1 in ameliorating a disease phenotype, 28-day old transgenic mice or littermate control were orally administered daily with a compound of Example 1 (2 mg/kg) or vehicle for a duration of 4 weeks. Disease progression was evaluated by weighting the mice during the treatment and by assessing their motor performances after 4 weeks of treatment.
Eight weeks old HD-N171-82Q mice and their wild-type littermates were first habituated for 1 min on a static rotor and 1 min at constant speed (4 rpm). Habituation was repeated. The test session consisted of four trials with 15 min intervals in between. For each trial 5 mice were placed on an accelerating rotor (4 to 40 rpm) and the latency to fall was recorded, with a maximum limit for individual animal set at 300 s.
To produce an experimental group HD-N171-82Q transgenic males were crossed with C3H/B6 F1 wild type females. 4 weeks old transgenic males and their wild type littermate male controls were randomized in different groups and treated with TST3 for 4 weeks.
TST3 treatment of HD-N171-82Q transgenic males and their wild type littermate male controls started at 4 weeks of age and was continued for 4 weeks before the test. […] In each trial mice were allowed to run on an accelerating rod from 4 to 40 rpm for up to 300 seconds and the latency to fall was counted. […]

For series [3], the system named is db/db mice. Kind of series: Blood glucose in obese db/db mice. The series is classed as in vivo, mouse. The following applies: 1 mg/kg once a day for three weeks. Here is the method:
For treatment of a metabolic disorder, Db/db animals (n=5 per condition) were treated once a day with 1 mg/kg of compound of Example 1 for three weeks. Blood glucose levels were measured with a blood glucose meter (DSI) between 9 and 10 am. Data are mean +/− S.e.m.

Series [4] addresses T1, PPP1R15A-PP1 complex (Homo sapiens, UniProt O75807).
T1 construct: the cDNAs encoding amino acids 325-636 of PPP1R15A; made in house; host or cells: R15A fragment: E. coli BL21-Gold; BAP-PP1γ: Sf9 insect cells (baculovirus)
Kind of series: SPR steady-state binding to R15A-PP1c holophosphatase on streptavidin chip. The protocol:
The streptavidin coated surface was activated by 1 min injection with a solution of 50 mM NaOH and 1 M NaCl. Biotin-PP1 was diluted in the running buffer (50 mM Tris pH 7.5, 100 mM NaCl, 0.1 mM EGTA, 1 mM MnCl2, 0.05% Tween 20) and injected at approximately 300 nM concentration directly to streptavidin coated surface for 100 sec or to reach immobilization level of biotin-PP1 corresponding to ˜7000 RU. A blank immobilization was performed for one of the SA sensor chip surface to use as a reference.
With minor deviations, the same procedure and conditions were used in all binding experiments. Small molecules were stored as 50 mM stock solutions in 100% DMSO. Prior to determining binding constants, serial dilutions of either 12 or 8 concentrations of the compounds were prepared in the running buffer in a 96-well plate. […] Then, without regenerating the surface, the compound dilution series was injected onto the surface of the chip Sensorgrams were analyzed using the Biacore T200 evaluation software and the binding constants determined based on a steady-state model. Kinetic experiments are carried out using different concentrations of the compound and their respective equilibrium binding levels determined.
Surface Plasmon Resonance (SPR) was used to measure the binding affinity of compounds to the PPP1R15A/B-PP1 phosphatase complex. Biotin acceptor peptide (BAP) was fused to the N-terminus of PP1γ, which enables the biotinylation of the BAP-tagged protein in Sf9 insect cells. After purification the BAP-PP1γ protein was captured on a streptavidin sensor chip (SA-chip, GE healthcare) to a response level of ˜5.000 RU. Using controlled biotinylation enables orientated and uniform immobilization on the sensor chip surface. The PP1γ was then used to capture PPP1R15A/B and form a holophosphatase complex on the surface of the streptavidin chip. This complex can then be used to test binding of compounds. 10 μM PPP1R15A/B protein concentration was used to form the holophosphatase complex during a 80 s injection. […] After the concentration series (8 or 12 concentrations) is completed the surface is regenerated with 3 M NaCl and we can capture R15A/B again to form a fresh holophosphatase complex to measure a binding of another compound concentration series. Analysing the level of equilibrium binding as a function of concentration gives interaction affinities or steady-state binding affinity (KD).
The streptavidin coated surface was activated by 1 minute injection with a solution of 50 mM NaOH and 1 M NaCl three times at a flow rate of 10 μl/min. bio-GBZ or bio-PP1c was diluted in the running buffer (50 mM Tris pH 7.5, 100 mM NaCl, 0.1 mM EGTA, 0.05% Tween 20, 0.1% DMSO) and injected at approximately 300 nM concentration at a flow rate of 10 μl/min directly to streptavidin coated surface to reach immobilization level of bio-GBZ or bio-PP1c corresponding to ˜200 and 6000 RU, respectively. A blank immobilization was performed for one of the SA sensor chip surface to use as a reference.
With minor deviations, the same procedure and conditions were used in all binding experiments. Small molecules were stored as 50 mM stock solutions in 100% DMSO. Prior to determining binding constants, serial dilutions of either 12 or 8 concentrations of the compounds were prepared in the running buffer in a 96-well plate. […] This was followed by 1 minute stabilization period, to wash off any unspecific binding. […]

Entries after “also recorded” stand apart in the source; their conditions may differ.

Results on two compounds are retold here after patent US11364211B2, “Methods for selecting phosphatase selective and non-selective phosphatase inhibitors” (MEDICAL RESEARCH COUNCIL, priority 2015, dated 2022).

T1 sequence (O75807 325-636): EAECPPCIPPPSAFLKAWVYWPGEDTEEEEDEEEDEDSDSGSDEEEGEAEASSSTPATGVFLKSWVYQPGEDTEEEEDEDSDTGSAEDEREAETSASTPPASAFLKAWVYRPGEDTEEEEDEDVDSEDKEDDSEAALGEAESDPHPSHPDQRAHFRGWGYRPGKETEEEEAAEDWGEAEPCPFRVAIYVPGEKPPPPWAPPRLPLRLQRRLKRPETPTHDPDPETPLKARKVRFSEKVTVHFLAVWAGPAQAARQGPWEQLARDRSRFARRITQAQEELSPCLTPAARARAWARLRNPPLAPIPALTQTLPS
T1 sequence (P36873 whole entry partner, the tested form may be a part): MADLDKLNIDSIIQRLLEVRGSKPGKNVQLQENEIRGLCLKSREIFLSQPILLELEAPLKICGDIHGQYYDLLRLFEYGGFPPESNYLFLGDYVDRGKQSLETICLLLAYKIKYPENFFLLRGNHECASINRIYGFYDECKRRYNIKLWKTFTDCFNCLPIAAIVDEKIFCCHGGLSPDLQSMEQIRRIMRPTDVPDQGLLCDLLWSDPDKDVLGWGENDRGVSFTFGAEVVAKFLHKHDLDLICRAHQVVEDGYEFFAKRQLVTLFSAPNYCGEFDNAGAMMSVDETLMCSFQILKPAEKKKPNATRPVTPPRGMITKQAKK

As to `[H]/N=C(\N)NN=Cc1cccc(Cl)c1Cl` [Example 1, (E)-2-(2,3-dichlorobenzylidene)hydrazine-1-carboximidamide], in series [1] (once a day for 2 weeks), the “toxicity / clinical signs” value is given as “undistinguishable from mice treated with placebo; also recorded: not toxic”. Besides, the weight gain entry in series [1] (up to 10 mg/mg once a day for 2 weeks) was “gained weight normally”. Besides, the “motor performance / disease prevention in Huntington's disease mice” value in series [2] was “ameliorates Huntington's disease; also recorded: prevented the motor performances impairment; also recorded: preventing disease”. Further, the blood glucose result in series [3] is “ameliorate a metabolic disorder; also recorded: reduced the pathological high blood glucose”.

On to `N=C(N)N/N=C/c1c(Cl)cccc1Cl` [Guanabenz, reference compound], for which, in series [4], the “binding to R15A-PP1c (in words)” value is recorded as “strongly bound”. Binding in series [4] (steady-state affinity, listed as GBZ) was put at a Kd of 122 nM.
